For 10 molecules, Ki results are on record in patent publication US6403594B1, “Benzopyran derivatives” (Recordati, S.A. Chemical and Pharmaceutical Company, priority 1999, dated 2002).

Molecules are shown by their SMILES. Structures can show the parent of a compound that is named as a salt.

As a reminder, the Ki is the dissociation constant of the complex between target and ligand, obtained from inhibition or displacement.

Test [1] deals with T1, α1b-adrenoceptor (recombinant) (Homo sapiens, UniProt P35368).
T1 construct: expressed in transfected cells
T1 sequence (P35368 1-520): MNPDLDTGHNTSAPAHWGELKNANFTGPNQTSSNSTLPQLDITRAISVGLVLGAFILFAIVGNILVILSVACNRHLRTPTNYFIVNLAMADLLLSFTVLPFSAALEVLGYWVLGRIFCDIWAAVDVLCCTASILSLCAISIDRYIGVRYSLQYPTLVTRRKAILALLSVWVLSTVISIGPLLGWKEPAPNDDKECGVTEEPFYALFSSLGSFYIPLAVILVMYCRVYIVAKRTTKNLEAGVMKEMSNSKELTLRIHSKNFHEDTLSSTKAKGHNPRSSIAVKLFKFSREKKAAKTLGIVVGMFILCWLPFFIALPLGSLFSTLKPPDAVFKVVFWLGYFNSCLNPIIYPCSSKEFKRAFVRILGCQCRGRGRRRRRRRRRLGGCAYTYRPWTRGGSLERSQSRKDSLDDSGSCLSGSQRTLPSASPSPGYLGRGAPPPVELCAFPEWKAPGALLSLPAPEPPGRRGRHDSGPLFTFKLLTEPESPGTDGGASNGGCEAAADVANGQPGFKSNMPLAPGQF
The test is described as follows: Radioligand binding, cloned α1b-adrenoceptor ([3H]prazosin). The following applies: read-out: Affinity for recombinant α1b-adrenoceptor, cloned receptors (Ki). How it is done:
(§1) Determination of affinity for cloned subtypes of α1-adrenoceptor subtypes was performed in membranes from cells transfected by electroporation with DNA expressing the genes encoding each α1-adrenoceptor subtype.
(§2) Non-specific binding was determined in the presence of 10 μM phentolamine.
(§3) Incubation was stopped by addition of ice-cold Tris buffer and rapid filtration through 0.2% polyethyleneimine-pretreated Schleicher & Schuell GF52 filters.
(§4) Data were expressed as mean Ki.

The target in test [2] is T2, α1a-adrenoceptor (recombinant) (Homo sapiens, UniProt P35348).
T2 construct: expressed in transfected cells
T2 sequence (P35348 1-466): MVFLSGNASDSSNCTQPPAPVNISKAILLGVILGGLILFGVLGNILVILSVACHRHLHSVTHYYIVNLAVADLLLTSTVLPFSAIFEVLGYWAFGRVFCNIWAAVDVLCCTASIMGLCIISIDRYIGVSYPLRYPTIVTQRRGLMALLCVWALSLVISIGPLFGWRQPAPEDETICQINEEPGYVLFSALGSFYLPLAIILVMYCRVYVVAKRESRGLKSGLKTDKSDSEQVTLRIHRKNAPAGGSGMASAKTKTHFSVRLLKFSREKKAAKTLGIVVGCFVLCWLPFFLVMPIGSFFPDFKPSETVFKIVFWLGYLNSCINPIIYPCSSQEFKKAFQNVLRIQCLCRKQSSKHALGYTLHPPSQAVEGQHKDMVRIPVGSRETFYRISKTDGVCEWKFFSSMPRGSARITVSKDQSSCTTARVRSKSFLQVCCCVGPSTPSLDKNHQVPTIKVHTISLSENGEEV
The test is described as follows: Radioligand binding, cloned α1a-adrenoceptor ([3H]prazosin). The following applies: read-out: Affinity for recombinant α1a-adrenoceptor, cloned receptors (Ki). How it is done:
as §1, §2, §3, §4

For test [3], the target named is T3, α1d-adrenoceptor (recombinant) (Homo sapiens, UniProt P25100).
T3 sequence (P25100 1-572): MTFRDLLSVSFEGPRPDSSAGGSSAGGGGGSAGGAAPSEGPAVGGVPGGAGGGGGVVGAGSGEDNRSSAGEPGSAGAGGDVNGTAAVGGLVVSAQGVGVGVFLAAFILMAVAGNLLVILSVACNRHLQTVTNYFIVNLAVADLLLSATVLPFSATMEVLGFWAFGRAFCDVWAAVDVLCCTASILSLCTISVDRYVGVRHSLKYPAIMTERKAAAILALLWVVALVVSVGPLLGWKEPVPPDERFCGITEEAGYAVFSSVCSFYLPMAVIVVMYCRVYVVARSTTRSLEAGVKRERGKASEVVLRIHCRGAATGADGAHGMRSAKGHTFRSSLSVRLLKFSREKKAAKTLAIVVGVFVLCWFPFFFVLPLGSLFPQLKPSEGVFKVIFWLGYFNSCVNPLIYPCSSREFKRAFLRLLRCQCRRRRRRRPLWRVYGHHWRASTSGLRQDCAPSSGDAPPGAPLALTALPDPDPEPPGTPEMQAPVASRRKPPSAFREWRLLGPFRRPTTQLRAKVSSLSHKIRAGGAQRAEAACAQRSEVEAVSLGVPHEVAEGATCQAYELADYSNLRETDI
In words: Radioligand binding, cloned α1d-adrenoceptor ([3H]prazosin). Particulars: read-out: Affinity for recombinant α1d-adrenoceptor, cloned receptors (Ki). Here is the method: as §1, §2, §3, §4

The target of test [4] is T4, 5HT1A-serotoninergic receptor (Homo sapiens, UniProt P08908).
T4 sequence (P08908 1-422): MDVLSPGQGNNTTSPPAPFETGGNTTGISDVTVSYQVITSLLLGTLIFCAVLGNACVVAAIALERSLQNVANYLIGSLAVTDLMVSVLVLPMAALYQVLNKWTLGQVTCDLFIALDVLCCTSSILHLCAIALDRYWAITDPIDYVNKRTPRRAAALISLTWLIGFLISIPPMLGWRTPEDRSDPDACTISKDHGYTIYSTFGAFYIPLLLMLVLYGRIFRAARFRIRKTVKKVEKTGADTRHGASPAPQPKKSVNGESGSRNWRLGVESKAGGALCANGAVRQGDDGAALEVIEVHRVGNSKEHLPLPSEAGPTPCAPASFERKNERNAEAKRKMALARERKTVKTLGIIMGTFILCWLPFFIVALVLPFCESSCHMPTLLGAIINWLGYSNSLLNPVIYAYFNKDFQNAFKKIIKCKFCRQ
In words: Radioligand binding, cloned 5-HT1A-serotoninergic receptor in HeLa membranes ([3H]8-OH-DPAT). The following applies: cloned human 5-HT1A receptor in HeLa membranes, mean Ki, read-out: Affinity for 5-HT1A receptor, cloned receptors (Ki). Further details: expressed in transfected cells; host or cells: HeLa. Here is the method:
HeLa cells were grown as monolayers in Dulbecco's Modified Eagle medium (DMEM) supplemented with 10% foetal calf serum and gentamicin (100 μg/mL), 5% CO2, at 37° C. The cells were detached from the growth flask at 95% confluence by a cell scraper and were lysed in ice-cold Tris-5-mM and EDTA-5-mM buffer (pH 7.4). The homogenates were centrifuged at 40000×g×20 minutes and the membranes were resuspended in a small volume of ice-cold buffer containing Tris 5 mM and EDTA 5 mM (pH 7.4), and immediately frozen and stored at −70° C. until use.
Non-specific binding was determined in the presence of 10 μM 5-HT. The incubation was stopped by addition of ice-cold Tris buffer and rapid filtration through 0.2% polyethyleneimine-pretreated Schleicher & Schuell filters.
as §4

For `COc1ccc(Cl)cc1N1CCN(CCCNC(=O)c2cccc3c(=O)c(C)c(C(C)=O)oc23)CC1` [Example 2, 2-Acetyl-8-{3-[4-(5-chloro-2-methoxyphenyl)-1-piperazinyl]propylcarbamoyl}-3-methyl-4-oxo-4H-1-benzopyran], the inhibitory constant (Ki) in test [1] came to 2.34 nM; in test [2], 0.32 nM; in test [3], 2.68 nM; in test [4] it was 12.3 nM.

As to `CNC(=O)c1oc2c(C(=O)NCCCN3CCN(c4cc(Cl)ccc4OC)CC3)cccc2c(=O)c1C` [Example 5, 8-{3-[4-(5-Chloro-2-methoxyphenyl)-1-piperazinyl]propylcarbamoyl}-3-methyl-2-methylcarbamoyl-4-oxo-4H-1-benzopyran], the Ki worked out at 2.39 nM in test [1], 0.57 nM in test [2], 2.05 nM in test [3] and 23.1 nM in test [4].

Take `Cc1c(C(N)=O)oc2c(C(=O)NCCCN3CCN(c4ccc(F)cc4OCC(F)(F)F)CC3)cccc2c1=O` [Example 7, 2-Carbamoyl-8-<3-{4-[4-fluoro-2-(2,2,2-trifluoroethoxy)phenyl]-1-piperazinyl}-propylcarbamoyl>-3-methyl-4-oxo-4H-1-benzopyran]: the Ki in test [2] was found to be 1.01 nM; in test [3], 6.43 nM; in test [4], 12.8 nM.

Take `COc1ccc(OCC(F)(F)F)cc1N1CCN(CCCNC(=O)c2cccc3c(=O)c(C)c(C(N)=O)oc23)CC1` [Example 9, 2-Carbamoyl-8-<3-{4-[2-methoxy-5-(2,2,2-trifluoroethoxy)phenyl]-1-piperazinyl}-propylcarbamoyl>-3-methyl-4-oxo-4H-1-benzopyran]: the figures for the Ki in test [1], in test [2] and in test [3] were 94.7 nM, 28.6 nM and 467 nM, respectively.

In the case of `Cc1c(C(N)=O)oc2c(C(=O)NCCCN3CCN(c4ccccc4OCC(F)(F)F)CC3)cccc2c1=O` [Example 10, 2-Carbamoyl-8-<3-{4-[2-(2,2,2-trifluoroethoxy)phenyl]-1-piperazinyl}-propylcarbamoyl>-3-methyl-4-oxo-4H-1-benzopyran], the Ki in test [1] amounted to 14.3 nM; in test [2] it was 0.173 nM; in test [3] it was 6.53 nM; in test [4] it was 5.54 nM.

`Cc1c(C(N)=O)oc2c(C(=O)NCCCN3CCN(c4cc(Cl)ccc4O)CC3)cccc2c1=O` [Example 12, 2-Carbamoyl-8-{3-[4-(5-chloro-2-hydroxyphenyl)-1-piperazinyl]-propylcarbamoyl}-3-methyl-4-oxo-4H-1-benzopyran]: the inhibition constant (Ki) in test [1] is 2.02 nM; in test [2], 1.15 nM; in test [3] it was 9.96 nM; in test [4] it was 4.16 nM.

With `Cc1c(C(N)=O)oc2c(C(=O)NCCCN3CCN(c4cc(Cl)ccc4OS(=O)(=O)C(F)(F)F)CC3)cccc2c1=O` [Example 13, 2-Carbamoyl-8-{3-[4-(5-chloro-2-trifluoromethanesulphonyloxyphenyl)-1-piperazinyl]propylcarbamoyl}-3-methyl-4-oxo-4H-1-benzopyran], the Ki was 1 nM in test [1], 1.61 nM in test [2], 11 nM in test [3] and 31.4 nM in test [4].

Take `Cc1c(-c2ccccc2)oc2c(C(=O)NCCCN3CCN(c4cc(F)ccc4OCC(F)(F)F)CC3)cccc2c1=O` [Example 20, 8-<3-{4-[5-Fluoro-2-(2,2,2-trifluoroethoxy)phenyl]-1-piperazinyl}-propylcarbamoyl>-3-methyl-4-oxo-2-phenyl-4H-1-benzopyran]: the Ki in test [1] is 3.54 nM; in test [2], 0.07 nM; in test [3] it was 0.32 nM; in test [4], 4.46 nM.

For the molecule `COc1ccc(OCC(F)(F)F)cc1N1CCN(CCCNC(=O)c2cccc3c(=O)c(C)c(-c4ccccc4)oc23)CC1` [Example 21, 8-<3-{4-[2-Methoxy-5-(2,2,2-trifluoroethoxy)phenyl]-1-piperazinyl}-propylcarbamoyl>-3-methyl-4-oxo-2-phenyl-4H-1-benzopyran], the Ki stood at 31.6 nM in test [1], 2.54 nM in test [2], 34.7 nM in test [3] and 257 nM in test [4].

Consider `Cc1c(-c2ccccc2)oc2c(C(=O)NCCCN3CCN(c4cc(Cl)ccc4OS(=O)(=O)C(F)(F)F)CC3)cccc2c1=O` [Example 24, 8-{3-[4-(5-Chloro-2-trifluoromethanesulphonyloxyphenyl)-1-piperazinyl]-propylcarbamoyl}-3-methyl-4-oxo-2-phenyl-4H-1-benzopyran hydrochloride], for which the inhibition constant Ki is 7.8 nM in test [1], 4.21 nM in test [2], 33.7 nM in test [3] and 140 nM in test [4].
